# Entries after “also recorded” stand apart in the source; their conditions may differ. Ends that are not written are not given here. * marks the point of attachment. Biotin = O=C1N[C@H]2[C@H](CS[C@H]2CCCCC(=O)*)N1
# Columns and labels:
# E. coli K-12 MG1655 = test: E. coli growth inhibition (growth curves, OD595); format: cell-based; details: 22.4 µM, approx. 10^7 CFU/ml, LB medium, 37°C with shaking, OD595 every 20 min for 7 h 20 min, PBS negative control, Figure 2
# Description: The E. coli K-12 MG1655 strain was first inoculated into LB medium and incubated at 37°C with shaking for 16 h. After incubation, the culture was diluted to approximately 10^7 CFU/ml using LB medium. Then, 22.4 µM of N-terminal biotinylated LfcinB (Kelowna Inc.), LfcinB (Kelowna Inc.) or biotin (Thermo) were individually added to the diluted cultures in a 96-well plate. PBS was used as a negative control. Finally, each compound or PBS with E. coli was incubated at 37°C with shaking and the growth curves were observed by measuring the OD595 value every 20 min for 7 h 20 min in a microplate reader (Synergy 2, BioTek®).
# [1] = test system: other 15 knockout strains; test: Knockout assay, other 15 knockout strains; format: cell-based, E. coli K-12; details: 32 µM LfcinB, LB medium, 37°C
# Description: The E. coli K-12 BW25113 (isogenic parent) strain and the 16 knockout strains were obtained from the E. coli Genetic Resources at the Coli Genetic Stock Center (CGSC) at Yale University. The strains were inoculated into LB medium, and incubated at 37°C with shaking. After 16 h of incubation, the cultures were diluted to approximately 10^7 CFU/ml with LB medium. Thirty-two µM of LfcinB were then added to the cultures in a 96-well plate. PBS was used as a negative control. Cultures with LfcinB or PBS were then incubated at 37°C with shaking in a microplate reader and the growth was observed by measuring the OD595 value every 20 min for 7 h 20 min.
substance,measurement,setting,value
Lactoferricin B (Biotin-FKCRRWQWRMKKLGAPSITCVRRAF; ends and bridges not checked) [LfcinB],growth curves / inhibition of E. coli growth,E. coli K-12 MG1655,exhibited the same inhibition of E. coli growth; also recorded: exhibit the same antibacterial activity
same,growth with LfcinB,[1],the growth was inhibited by LfcinB
